Assay [1] deals with Newcastle disease virus (strain 2M). It is filed as cell-based.
The next assay concerns P. aeruginosa 6616. The assay can be described thus: Photodynamic inactivation of Pseudomonas aeruginosa, re-seeding on MHA to control inactivation. It is filed as cell-based. The following applies: initial dose 10 lg CFU/ml, 5 min, 500 μV/ml.

Consider `Cc1cc2nc3c(=O)[nH]c(=O)nc-3n(C[C@H](O)[C@H](O)[C@H](O)CO)c2cc1C` [Riboflavin], for which the “spectral region of highest inactivation efficiency” value in assay [1] is on record as 180-390 nm. For the same compound, the “lg CFU/ml after treatment” value with P. aeruginosa 6616 (photosensitizer 1 nM/L, 320 nm for flavins, 560 nm for phenothiazines and porphyrins) came out at 6 lg CFU/ml; in the assay with P. aeruginosa 6616 (photosensitizer 5 nM/L, 320 nm for flavins, 560 nm for phenothiazines and porphyrins), 2 lg CFU/ml; in the assay on P. aeruginosa 6616 (photosensitizer 10 nM/L, 320 nm for flavins, 560 nm for phenothiazines and porphyrins), 1 lg CFU/ml; with P. aeruginosa 6616 (photosensitizer 20 nM/L, 320 nm for flavins, 560 nm for phenothiazines and porphyrins), 0 lg CFU/ml; with P. aeruginosa 6616 (photosensitizer 40 nM/L, 320 nm for flavins, 560 nm for phenothiazines and porphyrins) it was 0 lg CFU/ml; in the assay with P. aeruginosa 6616 (photosensitizer 80 nM/L, 320 nm for flavins, 560 nm for phenothiazines and porphyrins), 0 lg CFU/ml. Besides, the “lg CFU/ml after treatment” value with P. aeruginosa 6616 (photosensitizer 160 nM/L, 320 nm for flavins, 560 nm for phenothiazines and porphyrins) was 0 lg CFU/ml; in the assay on P. aeruginosa 6616 (photosensitizer 320 nM/L, 320 nm for flavins, 560 nm for phenothiazines and porphyrins), 0 lg CFU/ml; in the assay with P. aeruginosa 6616 (photosensitizer 640 nM/L, 320 nm for flavins, 560 nm for phenothiazines and porphyrins), 0 lg CFU/ml; in the assay with P. aeruginosa 6616 (wavelength 180 nm, photoinactivator 40 μM/L) it was 0 lg CFU/ml; in the assay with P. aeruginosa 6616 (wavelength 220 nm, photoinactivator 40 μM/L), 2 lg CFU/ml; with P. aeruginosa 6616 (wavelength 260 nm, photoinactivator 40 μM/L), 1 lg CFU/ml. Also, the “lg CFU/ml after treatment” value in the assay with P. aeruginosa 6616 (wavelength 320 nm, photoinactivator 40 μM/L) is listed as 0 lg CFU/ml; in the assay with P. aeruginosa 6616 (wavelength 360 nm, photoinactivator 40 μM/L), 0 lg CFU/ml; with P. aeruginosa 6616 (wavelength 400 nm, photoinactivator 40 μM/L), 0 lg CFU/ml; in the assay with P. aeruginosa 6616 (wavelength 440 nm, photoinactivator 40 μM/L), 0 lg CFU/ml; in the assay on P. aeruginosa 6616 (wavelength 480 nm, photoinactivator 40 μM/L) it was 0 lg CFU/ml; in the assay on P. aeruginosa 6616 (wavelength 520 nm, photoinactivator 40 μM/L), 9 lg CFU/ml. The “lg CFU/ml after treatment” value in the assay on P. aeruginosa 6616 (wavelength 560 nm, photoinactivator 40 μM/L) was 8 lg CFU/ml; in the assay on P. aeruginosa 6616 (wavelength 600 nm, photoinactivator 40 μM/L) it was 9 lg CFU/ml; with P. aeruginosa 6616 (wavelength 640 nm, photoinactivator 40 μM/L), 9 lg CFU/ml; in the assay with P. aeruginosa 6616 (wavelength 680 nm, photoinactivator 40 μM/L) it was 7 lg CFU/ml; in the assay with P. aeruginosa 6616 (wavelength 720 nm, photoinactivator 40 μM/L), 6 lg CFU/ml.

The values are drawn from patent US11213579B2, “Vaccines with enhanced immunogenicity, low allergenicity and reactogenicity” (priority 2018, dated 2022).
